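These data come from cells grown in 96-well plates and exposed to compound for 48 hours at five concentrations. GI50: concentration for 50% inhibition of growth.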 Activity calls are given as the source filed them. No stated cut-off is given here; in the data, active = GI50 up to about 1.1 µM and inactive = higher.
Legend:
Assay in all cases: NCI anticancer screen, dose series, 48 h
Hs-578T = system: Hs-578T
DLD-1 = system: DLD-1
DMS-114 = system: DMS-114
DMS-273 = system: DMS-273
KM-20L2 = system: KM-20L2
LXFL 529 = system: LXFL 529
XF498 = system: XF498
HOP-18 = system: HOP-18
RXF 631 = system: RXF 631

CCOC(=O)C1C[C@H]2CO[C@H](c3ccccc3)N2C1=O (some centres undefined)
GI50 (Hs-578T): > 100 µM (inactive)

O=C1/C(=C/c2ccc([N+](=O)[O-])cc2)CCCc2ccccc21
GI50 (Hs-578T): 25.8 µM (inactive)

Cc1c(C)c2c(c(N)c1C#N)C(=O)N(Cc1ccc(S(N)(=O)=O)cc1)C2=O
GI50 (Hs-578T): > 46.3 µM (inactive)

Cc1ccc(C(=O)/C=C2\Nc3c(c(=O)oc4ccccc34)N=C2NC23CC4CC(CC(C4)C2)C3)cc1
GI50 (DLD-1): 89.9 µM (inactive)
GI50 (DMS-114): > 100 µM (inactive)
GI50 (DMS-273): > 100 µM (inactive)
GI50 (KM-20L2): > 100 µM (inactive)
GI50 (LXFL 529): > 100 µM (inactive)
GI50 (XF498): > 100 µM (inactive)

N#CC1C=Cc2ccccc2N1C(=O)Oc1ccccc1 (centres undefined)
GI50 (Hs-578T): 60 µM (inactive)

CC1(C)C(=O)N(CCCCCCN2C(=O)C(C)(C)c3ccccc32)c2ccccc21
GI50 (DMS-114): 21.6 µM (inactive)
GI50 (DMS-273): 40.9 µM (inactive)
GI50 (HOP-18): 81.1 µM (inactive)
GI50 (KM-20L2): 37.2 µM (inactive)
GI50 (LXFL 529): 39.1 µM (inactive)
GI50 (XF498): 16.5 µM (inactive)

CC(=O)N1CC(C)(C)c2c(C)c(O)c(C)c(C)c21
GI50 (Hs-578T): > 100 µM (inactive)

COc1cccc(-c2nc(O)c3ccccc3n2)c1
GI50 (Hs-578T): 19.6 µM (inactive)

O=C1c2cccc3cccc(c23)C(=O)N1CCN(CCO)CCO
GI50 (DLD-1): 30.6 µM (inactive)
GI50 (DMS-273): 22.8 µM (inactive)
GI50 (HOP-18): 75 µM (inactive)
GI50 (KM-20L2): 21.1 µM (inactive)
GI50 (LXFL 529): 32.3 µM (inactive)
GI50 (RXF 631): 35.8 µM (inactive)
GI50 (XF498): 28.5 µM (inactive)

COc1ccc2c(CCNS(=O)(=O)c3ccccc3)c(C(C)=O)[nH]c2c1
GI50 (Hs-578T): 46 µM (inactive)

O=C(/C=C/c1ccccc1)CCC1C(=O)NC(=S)NC1=O
GI50 (Hs-578T): > 100 µM (inactive)

CCOC(=O)C1=C(C)NC(=S)NC1c1ccccc1 (centres undefined)
GI50 (DLD-1): > 57.9 µM (inactive)
GI50 (DMS-114): > 39.9 µM (inactive)
GI50 (DMS-273): > 100 µM (inactive)
GI50 (HOP-18): > 35.6 µM (inactive)
GI50 (KM-20L2): > 41.4 µM (inactive)
GI50 (LXFL 529): 76.4 µM (inactive)
GI50 (RXF 631): > 100 µM (inactive)
GI50 (XF498): > 39.4 µM (inactive)

O=C1c2[nH]c3ccccc3c2CCN2CCCCC12 (centres undefined)
GI50 (Hs-578T): 28 µM (inactive)

Nc1ccc(C(=O)NN2C(=O)C(Cl)C2c2ccc(O)cc2)cc1 (centres undefined)
GI50 (DLD-1): 18.1 µM (inactive)
GI50 (DMS-114): 13 µM (inactive)
GI50 (DMS-273): 17.2 µM (inactive)
GI50 (KM-20L2): 19.9 µM (inactive)
GI50 (LXFL 529): 17.8 µM (inactive)
GI50 (XF498): 14.7 µM (inactive)

C1=C2/CC[C@H](Sc3ccccc3)[C@H]2C2(CCCCC/1)OCCO2
GI50 (DLD-1): 61.4 µM (inactive)
GI50 (DMS-273): 39.4 µM (inactive)
GI50 (HOP-18): 72.8 µM (inactive)
GI50 (KM-20L2): 21.1 µM (inactive)
GI50 (LXFL 529): 46.7 µM (inactive)

O=S1(=O)N2CN3CN(C2)CN1C3
GI50 (DLD-1): 33.4 µM (inactive)
GI50 (DMS-114): 23.7 µM (inactive)
GI50 (DMS-273): 27 µM (inactive)
GI50 (HOP-18): > 50.1 µM (inactive)
GI50 (KM-20L2): > 91.8 µM (inactive)
GI50 (LXFL 529): 18.2 µM (inactive)
GI50 (XF498): > 100 µM (inactive)

O=C(N[C@H]1CC2(C=C(I)C(=O)C(I)=C2)OC1=O)OCc1ccccc1
GI50 (DLD-1): 15.7 µM (inactive)
GI50 (DMS-114): 19.8 µM (inactive)
GI50 (KM-20L2): 18.6 µM (inactive)
GI50 (LXFL 529): 16.6 µM (inactive)
GI50 (RXF 631): 17.1 µM (inactive)
GI50 (XF498): 13.8 µM (inactive)

CC(=O)Oc1cc(Cl)c(C)c2c1[C@H]1CC[C@]3(C)[C@@H](OC(C)=O)CC[C@H]3[C@@H]1CC2
GI50 (Hs-578T): > 100 µM (inactive)

COc1ccc2c(c1)C(N)=C(c1ccccc1)C2=O
GI50 (Hs-578T): 11.4 µM (inactive)

CCOC(=O)/C=C\C(C#N)(C#N)/N=C/c1ccsc1
GI50 (Hs-578T): 19.5 µM (inactive)

CCCCCCCCCCCCCCCCNc1ccc2c(c1)OCCOCCOCCOCCO2
GI50 (Hs-578T): 2.82 µM (inactive)

NCc1nnn(Cc2ccccc2)c1N
GI50 (Hs-578T): > 100 µM (inactive)

COC(=O)N1C=CC2=C(C)C3Nc4ccccc4C3C(C)=C2C1 (centres undefined)
GI50 (DLD-1): 1.74 µM (inactive)
GI50 (DMS-114): 23 µM (inactive)
GI50 (DMS-273): 0.301 µM (active)
GI50 (KM-20L2): 0.697 µM (active)
GI50 (LXFL 529): 0.953 µM (active)
GI50 (XF498): 2.48 µM (inactive)

O=C1CC(c2ccccc2Cl)Oc2ccccc21 (centres undefined)
GI50 (Hs-578T): 26.3 µM (inactive)

CC1=CC=CC(C)(C)CC1(O[Si](C)(C)C)C(F)(F)F (centres undefined)
GI50 (Hs-578T): > 100 µM (inactive)

COc1cc(C(=O)OC2CC34CCNC35CC(OC5(OC)C2O)c2cc3c(cc24)OCO3)ccc1O (centres undefined)
GI50 (Hs-578T): > 100 µM (inactive)

COc1c(O)cc2ccnc3c2c1N(C)C=C3
GI50 (Hs-578T): > 100 µM (inactive)

CC(C)OP(=O)(OC(C)C)/C(C#N)=C/c1ccco1
GI50 (Hs-578T): > 100 µM (inactive)

COc1ccc(CN2C(=O)C(Cc3cc(OC)c(OC)c(C)c3OC)NC(=O)/C2=C/c2cc(OC)c(OC)c(C)c2OC)cc1 (centres undefined)
GI50 (DLD-1): 33 µM (inactive)
GI50 (DMS-114): 33.2 µM (inactive)
GI50 (DMS-273): > 10 µM (inactive)
GI50 (HOP-18): 26.1 µM (inactive)
GI50 (KM-20L2): 25 µM (inactive)
GI50 (LXFL 529): 31.8 µM (inactive)
GI50 (RXF 631): 43 µM (inactive)

CC(=O)c1ccc(NC(=O)/C(CC(=O)c2sc(-c3cccnc3)nc2C)=N/NC(N)=O)cc1
GI50 (DMS-114): > 100 µM (inactive)
GI50 (KM-20L2): > 100 µM (inactive)
GI50 (LXFL 529): 41.4 µM (inactive)
GI50 (XF498): > 100 µM (inactive)

CC(C)N(C(C)C)S(=O)(=O)CC12CCC(C/C1=N\O)C2 (centres undefined)
GI50 (Hs-578T): > 100 µM (inactive)

Cc1cc2c(c(S(=O)(=O)c3ccccc3[N+](=O)[O-])c1)NCCC2
GI50 (Hs-578T): > 100 µM (inactive)
